Data on 21 compounds can be found in PubChem BioAssay AID248 (DTP/NCI, 2004).

Where “and” joins values, the source holds several entries; their conditions need not be identical. Identical values can stand only once. Inconclusive results and toxic doses are left out. Square brackets hold non-standard residues; d marks the D form. Peptide text beside a SMILES is read from it. * marks the point of attachment. ξ: configuration not given here. ξY = NC(Cc1ccc(O)cc1)C(=O)O; Cbz = O=C(OCc1ccccc1)*

The test system of this experiment is L1210 leukemia ip in BDF1 mice, survival T/C. As to the kind of experiment: NCI In Vivo Anticancer Drug Screen. Data for tumor model L1210 Leukemia (intraperitoneal) in B6D2F1 (BDF1) mice. Particulars: endpoint: mean survival time, higher = longer survival. Put shortly:
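Read-out is survival time, reported as the treated-group measurement over the vehicle-control measurement.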

[1] abbreviates: dose: 100.0 mg/kg/injection, schedule: Q01DX009 (ip), vehicle: saline with Tween-80.
Where [2] appears, read: dose: 200.0 mg/kg/injection, schedule: Q01DX009 (ip), vehicle: saline with Tween-80.
Where [3] appears, read: dose: 6.25 mg/kg/injection, schedule: Q04DX002 (ip), vehicle: Klucel (hydroxypropylcellulose) (HPC).
Where [4] appears, read: dose: 12.5 mg/kg/injection, schedule: Q04DX002 (ip), vehicle: Klucel (hydroxypropylcellulose) (HPC).
Where [5] appears, read: dose: 100.0 mg/kg/injection, schedule: Q01DX009 (ip), vehicle: Klucel (hydroxypropylcellulose) (HPC).
Setting [6] is: dose: 400.0 mg/kg/injection, schedule: Q01DX009 (ip), vehicle: Klucel (hydroxypropylcellulose) (HPC).
The mark [7] stands for this setting: dose: 100.0 mg/kg/injection, schedule: Q01DX001 (ip), vehicle: saline with Tween-80.
The mark [8] stands for this setting: dose: 100.0 mg/kg/injection, schedule: Q04DX003 (ip), vehicle: Klucel (hydroxypropylcellulose) (HPC).
Setting [9] is: dose: 200.0 mg/kg/injection, schedule: Q04DX003 (ip), vehicle: Klucel (hydroxypropylcellulose) (HPC).
[10] abbreviates: dose: 400.0 mg/kg/injection, schedule: Q04DX003 (ip), vehicle: Klucel (hydroxypropylcellulose) (HPC).
[11] abbreviates: dose: 25.0 mg/kg/injection, schedule: Q01DX009 (ip), vehicle: Klucel (hydroxypropylcellulose) (HPC).
Setting [12] is: dose: 50.0 mg/kg/injection, schedule: Q01DX009 (ip), vehicle: Klucel (hydroxypropylcellulose) (HPC).
Where [13] appears, read: dose: 100.0 mg/kg/injection, schedule: Q04DX003 (ip), vehicle: saline.
Setting [14] is: dose: 200.0 mg/kg/injection, schedule: Q04DX003 (ip), vehicle: saline.

On to `NC(=S)N/N=C/c1ccc(O)c(C(=O)O)c1`, for which the T/C (dose: 15.0 mg/kg/injection, schedule: Q01DX Z (ip), vehicle: methylcellulose (MC)) was 97 % of control; the T/C (dose: 30.0 mg/kg/injection, schedule: Q01DX Z (ip), vehicle: methylcellulose (MC)) was 95 % of control; the T/C (dose: 60.0 mg/kg/injection, schedule: Q01DX Z (ip), vehicle: methylcellulose (MC)) was 95 % of control; the T/C (dose: 120.0 mg/kg/injection, schedule: Q01DX Z (ip), vehicle: methylcellulose (MC)) is 97 % of control; the T/C (dose: 250.0 mg/kg/injection, schedule: Q01DX Z (ip), vehicle: methylcellulose (MC)) is 91 % of control; the T/C (dose: 375.0 mg/kg/injection, schedule: Q01DX Z (ip), vehicle: methylcellulose (MC)) is 89 % of control.

As for `Cc1ncc(CO)c(C2NOCc3c(Cl)cc4c(c32)OCO4)c1O` (stereo not drawn), the T/C was 90 % of control under setting [1]; 95 % of control under setting [2]; 94 % of control (dose: 400.0 mg/kg/injection, schedule: Q01DX009 (ip), vehicle: saline with Tween-80).

For the compound `CC(=O)c1ccc2c(c1)C(=O)c1ccccc1-2`, the T/C reads like this: (dose: 100.0 mg/kg/injection, schedule: Q01DX001 (ip), vehicle: carboxymethylcellulose (CMC)) 92 % of control; (dose: 200.0 mg/kg/injection, schedule: Q01DX001 (ip), vehicle: carboxymethylcellulose (CMC)) 93 % of control; (dose: 400.0 mg/kg/injection, schedule: Q01DX001 (ip), vehicle: carboxymethylcellulose (CMC)) 93 % of control.

For the compound `CCN(CC)CCSC(=O)C(O)(c1ccccc1)c1ccccc1`, under “dose: 75.0 mg/kg/injection, schedule: Q01DX001 (ip), vehicle: saline”, the T/C was 100 % of control.

Regarding `C[N+](C)(C)/N=C/C1=C(Cl)CCCC1`, the T/C is, setting by setting: (dose: 3.13 mg/kg/injection, schedule: Q04DX002 (ip), vehicle: Klucel (hydroxypropylcellulose) (HPC)) 94 % of control; under setting [3], 102 % of control; under setting [4], 97 % of control; (dose: 75.0 mg/kg/injection, schedule: Q01DX001 (ip), vehicle: carboxymethylcellulose (CMC)) 114 % of control.

With `CCc1ccc(NC(=O)Nc2ccc(Cl)c(Cl)c2)cc1`, the T/C by setting is: under setting [5], 90 % of control; (dose: 200.0 mg/kg/injection, schedule: Q01DX009 (ip), vehicle: Klucel (hydroxypropylcellulose) (HPC)) 103 % of control; under setting [6], 103 % of control.

`C=CCN(C)/N=N/c1[nH]ncc1C(N)=O`: the T/C by setting is: (dose: 14.5 mg/kg/injection, schedule: Q01DX009 (ip), vehicle: saline with Tween-80) 116 % of control; (dose: 44.0 mg/kg/injection, schedule: Q04DX003 (ip), vehicle: saline with Tween-80) 114 % of control; (dose: 50.0 mg/kg/injection, schedule: Q01DX009 (ip), vehicle: saline with Tween-80) 157 % of control; (dose: 50.0 mg/kg/injection, schedule: Q04DX003 (ip), vehicle: saline with Tween-80) 119 % of control; (dose: 67.0 mg/kg/injection, schedule: Q04DX003 (ip), vehicle: saline with Tween-80) 114 % of control; under setting [7], 109 % of control. Moreover, the T/C runs as follows: under setting [1], 154 % of control; under setting [2], 88 % of control.

Regarding `O=C(NC/C(Br)=C/Br)c1ccccc1`, the T/C by setting is: under setting [8], 96 % of control; under setting [9], 100 % of control; under setting [10], 96 % of control.

As for `CCOC(=O)C(Cc1ccc(O)cc1)NC(=O)CNC(=O)OCc1ccccc1` (stereo not drawn) (Cbz-Gly-[ξY]-OEt), the T/C is 106 % of control (dose: 100.0 mg/kg/injection, schedule: Q04DX003 (ip), vehicle: saline with Tween-80); 95 % of control (dose: 200.0 mg/kg/injection, schedule: Q04DX003 (ip), vehicle: saline with Tween-80); 96 % of control (dose: 400.0 mg/kg/injection, schedule: Q04DX003 (ip), vehicle: saline with Tween-80).

For the compound `COc1ccc(CNCCN2CC2)cc1`, the T/C reads like this: (dose: 10.0 mg/kg/injection, schedule: Q01DX009 (ip), vehicle: Klucel (hydroxypropylcellulose) (HPC)) 108 % of control; (dose: 20.0 mg/kg/injection, schedule: Q01DX009 (ip), vehicle: Klucel (hydroxypropylcellulose) (HPC)) 106 % of control; (dose: 40.0 mg/kg/injection, schedule: Q01DX009 (ip), vehicle: Klucel (hydroxypropylcellulose) (HPC)) 98 % of control.

Regarding `OCCOc1nc(Cl)nc(Cl)c1Cl` (tested in a mixture with another compound), the T/C (dose: 12.5 mg/kg/injection, schedule: Q01DX009 (ip), vehicle: Klucel (hydroxypropylcellulose) (HPC)) is 110 % of control; the T/C under setting [11] is 96 % of control; the T/C under setting [12] was 100 % of control and 91 % of control.

For the compound `CCCCS(=O)(=O)c1ccc(OC)c(NC(C)=O)c1`, the T/C by setting is: (dose: 75.0 mg/kg/injection, schedule: Q04DX003 (ip), vehicle: Klucel (hydroxypropylcellulose) (HPC)) 103 % of control; (dose: 100.0 mg/kg/injection, schedule: Q01DX001 (ip), vehicle: Klucel (hydroxypropylcellulose) (HPC)) 98 % of control; (dose: 150.0 mg/kg/injection, schedule: Q04DX003 (ip), vehicle: Klucel (hydroxypropylcellulose) (HPC)) 96 % of control; (dose: 200.0 mg/kg/injection, schedule: Q01DX001 (ip), vehicle: Klucel (hydroxypropylcellulose) (HPC)) 107 % of control; (dose: 300.0 mg/kg/injection, schedule: Q04DX003 (ip), vehicle: Klucel (hydroxypropylcellulose) (HPC)) 107 % of control; (dose: 400.0 mg/kg/injection, schedule: Q01DX001 (ip), vehicle: Klucel (hydroxypropylcellulose) (HPC)) 100 % of control.

As to `O=C(Nc1ccccc1Cl)Oc1c(Cl)cc(Cl)c2ccccc12`, the T/C was 100 % of control under setting [11]; 105 % of control under setting [12]; 91 % of control (dose: 100.0 mg/kg/injection, schedule: Q04DX002 (ip), vehicle: Klucel (hydroxypropylcellulose) (HPC)).

On to `CCOC(=O)CC1(C)NC(C(=O)O)C(C)(C)S1` (stereo not drawn), for which the T/C by setting is: under setting [5], 97 % of control; under setting [6], 97 % of control.

Turning to `c1ccc(-c2cn3ccccc3n2)cc1`, the T/C is 94 % of control under setting [7]; 96 % of control under setting [8]; 92 % of control (dose: 200.0 mg/kg/injection, schedule: Q01DX001 (ip), vehicle: saline with Tween-80); 94 % of control under setting [9]; 94 % of control (dose: 400.0 mg/kg/injection, schedule: Q01DX001 (ip), vehicle: saline with Tween-80); 98 % of control under setting [10].

As to `O=C(Nc1ncc([N+](=O)[O-])s1)c1ccc(Cl)s1`, the T/C is, setting by setting: under setting [3], 94 % of control; under setting [4], 91 % of control; (dose: 25.0 mg/kg/injection, schedule: Q04DX002 (ip), vehicle: Klucel (hydroxypropylcellulose) (HPC)) 87 % of control.

As to `O=C1CCCc2ccc([N+](=O)[O-])cc21`, the T/C under setting [13] was 96 % of control and the T/C under setting [14] is 87 % of control.

For the compound `Cc1ccc[n+]([O-])c1N=[N+]=[N-]`, the T/C is, setting by setting: under setting [13], 102 % of control; under setting [14], 102 % of control; (dose: 400.0 mg/kg/injection, schedule: Q04DX003 (ip), vehicle: saline) 98 % of control.

As for `CCCCCCCCCCCCCCCCCC[N+]1(C)CCC1C` (stereo not drawn), the T/C is 102 % of control (dose: 0.78 mg/kg/injection, schedule: Q04DX003 (ip), vehicle: saline) and 101 % of control (dose: 1.56 mg/kg/injection, schedule: Q04DX003 (ip), vehicle: saline).

As for `Cn1c(=O)cc(/C=C/c2ccc(-c3ccccc3)cc2)c2ccccc21`, the T/C (dose: 100.0 mg/kg/injection, schedule: Q01DX001 (ip), vehicle: saline) is 103 % of control; the T/C (dose: 200.0 mg/kg/injection, schedule: Q01DX001 (ip), vehicle: saline) is 93 % of control; the T/C (dose: 400.0 mg/kg/injection, schedule: Q01DX001 (ip), vehicle: saline) was 93 % of control.

With `CCOC(=O)c1cc2c3n(c1=O)CCCC3C(c1ccncc1)OC2=O` (stereo not drawn), the T/C is, setting by setting: (dose: 75.0 mg/kg/injection, schedule: Q04DX003 (ip), vehicle: saline) 95 % of control; (dose: 150.0 mg/kg/injection, schedule: Q04DX003 (ip), vehicle: saline) 100 % of control; (dose: 300.0 mg/kg/injection, schedule: Q04DX003 (ip), vehicle: saline) 95 % of control.
